Data: ChEMBL document CHEMBL1201862, “PubChem BioAssay data set” (2004)
Active and inactive are the calls of the source.

Experiments:
[1] = target: T1, Sentrin-specific protease 1 (Homo sapiens, UniProt Q9P0U3); assay: potency of human SENP1 inhibitors, dose response, biochemical, kinetic FRET (AID 651697); assay type: functional; details: read-out: IC50_Mean
[2] = target: T1, Sentrin-specific protease 1; assay: Dose response confirmation of small molecule inhibitors of the catalytic domain of the SUMO protease, SENP1 in a FRET assay.; assay type: functional; details: read-out: IC50_Mean
[3] = growth suppression of PTEN-null colon cells, dose response, cell-based, HCT116 PTEN knockout (AID 1047); assay type: functional;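 note: HCT116 colon tumor cells with PTEN knocked out; cells exposed to compound for 60 hours before readout; potency for loss of cell viability measured by luminescence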
[4] = DNA binding of candidate compounds, dose response, artefact control for RAD54 inhibitor project, biochemical, fluorescence polarization, cherry-pick (AID 651673); assay type: functional
[5] = target: SWI/SNF-related matrix-associated actin-dependent regulator of chromatin subfamily A member 2 (Homo sapiens, UniProt P51531); assay: Luminescence-based cell-based high throughput dose response assay to identify activators of the function of SWI/SNF related, matrix associated, actin dependent regulator of chromatin, subfamily a, member 2 (SMARCA2, BRM).; assay type: functional
[6] = inhibitors of intracellular T. cruzi replication, confirmation, NIH3T3 host cells, beta-gal luminescence (AID 2044); assay type: functional, cell-based;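 note: intracellular parasites grown in NIH/3T3 mouse fibroblasts as host cells; luminescent beta-galactosidase reporter signal from transgenic T. cruzi replicating inside host cells; inhibitors lower the luminescence signal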
[7] = target: Nonstructural protein 1 (Influenza A virus, UniProt Q194T2); assay type: functional, Influenza A virus (A/California/07/2009(H1N1))
[8] = target: T2, DNA repair and recombination protein RAD54-like (Homo sapiens, UniProt Q92698); assay: inhibitors of human RAD54 branch migration, confirmation, biochemical, fluorescence, cherry-picked samples, dose series (AID 651657); assay type: functional
T2 sequence (Q92698 whole entry): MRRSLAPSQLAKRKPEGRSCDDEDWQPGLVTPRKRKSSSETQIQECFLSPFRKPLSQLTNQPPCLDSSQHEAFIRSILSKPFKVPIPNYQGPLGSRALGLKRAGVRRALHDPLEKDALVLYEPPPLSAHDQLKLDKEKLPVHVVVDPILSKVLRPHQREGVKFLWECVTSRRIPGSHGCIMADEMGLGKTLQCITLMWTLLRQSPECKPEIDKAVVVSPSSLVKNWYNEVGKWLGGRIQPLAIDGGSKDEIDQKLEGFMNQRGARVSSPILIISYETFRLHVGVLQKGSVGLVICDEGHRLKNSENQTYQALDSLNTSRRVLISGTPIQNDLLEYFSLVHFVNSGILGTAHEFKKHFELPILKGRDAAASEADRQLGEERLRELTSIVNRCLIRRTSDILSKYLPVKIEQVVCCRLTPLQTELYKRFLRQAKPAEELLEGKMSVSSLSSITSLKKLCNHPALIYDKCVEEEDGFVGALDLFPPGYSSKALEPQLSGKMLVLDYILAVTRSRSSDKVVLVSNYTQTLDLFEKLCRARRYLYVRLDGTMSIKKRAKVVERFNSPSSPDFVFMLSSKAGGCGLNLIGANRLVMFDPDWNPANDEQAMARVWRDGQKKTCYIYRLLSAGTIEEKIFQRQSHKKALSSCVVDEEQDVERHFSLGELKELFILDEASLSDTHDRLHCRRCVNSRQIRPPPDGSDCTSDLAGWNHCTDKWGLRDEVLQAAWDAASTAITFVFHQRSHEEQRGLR

[9] = cytotoxicity toward NIH3T3 fibroblasts, dose response, counter-screen, cell-based, ATP luminescence, mouse fibroblasts (AID 2010); assay type: functional;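 note: cells exposed to compound for about 90 hours before reading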
[10] = target: DNA (cytosine-5)-methyltransferase 1 (Homo sapiens, UniProt P26358); assay: DNMT1 methyltransferase inhibitors, confirmation, biochemical, fluorescent molecular beacon (AID 602386); assay type: functional
[11] = Counterscreen for activators of the function of SWI/SNF related, matrix associated, actin dependent regulator of chromatin, subfamily a, member 2 (SMARCA2, BRM): Luminescence-based cell-based high throughput dose response assay to identify non-selective compounds using the VP16 reporter assay.; assay type: functional
[12] = growth suppression of beta-catenin-knockout colon cells, dose response, cell-based, HCT116, human colon tumor (AID 1045); assay type: functional;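 note: HCT116 colon tumor cells with beta catenin knocked out; cells exposed to compound for 60 hours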

T1 sequence (Q9P0U3 whole entry, the tested form may be a part): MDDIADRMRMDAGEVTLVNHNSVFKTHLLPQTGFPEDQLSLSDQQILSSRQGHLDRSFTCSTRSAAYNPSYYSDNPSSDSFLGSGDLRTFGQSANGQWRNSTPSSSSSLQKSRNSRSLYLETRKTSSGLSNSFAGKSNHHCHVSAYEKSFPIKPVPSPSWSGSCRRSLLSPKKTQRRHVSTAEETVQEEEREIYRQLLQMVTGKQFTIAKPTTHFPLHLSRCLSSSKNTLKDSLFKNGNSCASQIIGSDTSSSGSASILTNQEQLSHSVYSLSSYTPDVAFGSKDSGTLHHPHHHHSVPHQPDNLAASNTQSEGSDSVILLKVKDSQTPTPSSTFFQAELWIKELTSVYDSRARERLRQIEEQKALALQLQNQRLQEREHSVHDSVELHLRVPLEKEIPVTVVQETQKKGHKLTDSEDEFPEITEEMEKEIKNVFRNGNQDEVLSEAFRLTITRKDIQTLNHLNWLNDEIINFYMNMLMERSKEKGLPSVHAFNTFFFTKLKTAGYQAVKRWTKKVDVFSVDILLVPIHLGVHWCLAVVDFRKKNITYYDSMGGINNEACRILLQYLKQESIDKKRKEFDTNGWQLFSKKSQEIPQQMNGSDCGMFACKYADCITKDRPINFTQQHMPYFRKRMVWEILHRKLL
Chain of SWI/SNF-related matrix-associated actin-dependent regulator of chromatin subfamily A member 2 (P51531 whole entry): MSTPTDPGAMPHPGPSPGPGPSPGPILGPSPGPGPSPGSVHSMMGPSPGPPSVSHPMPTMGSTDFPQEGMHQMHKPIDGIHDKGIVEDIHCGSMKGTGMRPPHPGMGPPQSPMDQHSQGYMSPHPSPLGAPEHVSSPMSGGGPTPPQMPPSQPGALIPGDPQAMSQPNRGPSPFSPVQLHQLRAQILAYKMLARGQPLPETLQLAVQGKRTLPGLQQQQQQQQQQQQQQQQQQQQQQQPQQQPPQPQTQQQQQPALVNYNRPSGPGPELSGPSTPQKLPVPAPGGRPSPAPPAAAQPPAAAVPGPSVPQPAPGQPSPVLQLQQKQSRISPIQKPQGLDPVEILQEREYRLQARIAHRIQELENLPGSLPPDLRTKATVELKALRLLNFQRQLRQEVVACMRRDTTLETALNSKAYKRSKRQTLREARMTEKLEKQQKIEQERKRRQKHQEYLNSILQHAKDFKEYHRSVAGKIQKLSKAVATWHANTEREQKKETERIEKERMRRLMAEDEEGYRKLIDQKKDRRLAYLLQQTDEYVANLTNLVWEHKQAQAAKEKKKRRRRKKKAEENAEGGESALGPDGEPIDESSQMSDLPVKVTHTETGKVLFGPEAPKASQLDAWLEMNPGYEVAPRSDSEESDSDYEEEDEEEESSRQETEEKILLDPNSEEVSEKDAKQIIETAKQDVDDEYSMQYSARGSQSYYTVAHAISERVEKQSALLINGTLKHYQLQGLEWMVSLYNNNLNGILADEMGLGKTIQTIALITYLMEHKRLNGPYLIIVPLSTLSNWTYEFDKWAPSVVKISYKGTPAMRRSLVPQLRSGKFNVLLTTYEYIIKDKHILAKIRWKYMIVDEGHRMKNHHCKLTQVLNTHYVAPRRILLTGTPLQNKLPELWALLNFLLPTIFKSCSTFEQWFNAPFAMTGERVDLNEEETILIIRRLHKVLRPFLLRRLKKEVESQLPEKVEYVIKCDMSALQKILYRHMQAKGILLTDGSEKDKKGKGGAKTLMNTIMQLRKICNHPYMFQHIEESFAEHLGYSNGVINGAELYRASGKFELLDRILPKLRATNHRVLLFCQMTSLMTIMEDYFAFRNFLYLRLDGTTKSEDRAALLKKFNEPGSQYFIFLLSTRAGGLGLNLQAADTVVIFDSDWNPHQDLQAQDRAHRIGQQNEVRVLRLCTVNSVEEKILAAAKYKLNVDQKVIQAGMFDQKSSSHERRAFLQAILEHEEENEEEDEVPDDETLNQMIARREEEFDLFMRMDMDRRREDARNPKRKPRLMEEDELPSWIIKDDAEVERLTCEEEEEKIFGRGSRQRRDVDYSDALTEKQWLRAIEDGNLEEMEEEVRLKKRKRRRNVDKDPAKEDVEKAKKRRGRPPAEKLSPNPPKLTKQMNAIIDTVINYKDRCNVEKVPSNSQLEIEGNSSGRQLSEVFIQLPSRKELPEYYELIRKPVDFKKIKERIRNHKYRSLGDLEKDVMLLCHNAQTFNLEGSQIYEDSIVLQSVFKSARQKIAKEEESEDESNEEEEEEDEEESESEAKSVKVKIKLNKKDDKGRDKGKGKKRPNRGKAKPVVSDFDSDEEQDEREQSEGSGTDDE
Chain of Nonstructural protein 1 (Q194T2 whole entry): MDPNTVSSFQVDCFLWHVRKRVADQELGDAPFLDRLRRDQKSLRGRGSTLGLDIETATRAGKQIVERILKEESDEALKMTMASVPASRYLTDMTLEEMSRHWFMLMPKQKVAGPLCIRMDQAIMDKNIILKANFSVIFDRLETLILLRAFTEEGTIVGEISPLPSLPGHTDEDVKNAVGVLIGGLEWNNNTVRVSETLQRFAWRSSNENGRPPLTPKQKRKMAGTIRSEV
Chain of DNA (cytosine-5)-methyltransferase 1 (P26358 whole entry): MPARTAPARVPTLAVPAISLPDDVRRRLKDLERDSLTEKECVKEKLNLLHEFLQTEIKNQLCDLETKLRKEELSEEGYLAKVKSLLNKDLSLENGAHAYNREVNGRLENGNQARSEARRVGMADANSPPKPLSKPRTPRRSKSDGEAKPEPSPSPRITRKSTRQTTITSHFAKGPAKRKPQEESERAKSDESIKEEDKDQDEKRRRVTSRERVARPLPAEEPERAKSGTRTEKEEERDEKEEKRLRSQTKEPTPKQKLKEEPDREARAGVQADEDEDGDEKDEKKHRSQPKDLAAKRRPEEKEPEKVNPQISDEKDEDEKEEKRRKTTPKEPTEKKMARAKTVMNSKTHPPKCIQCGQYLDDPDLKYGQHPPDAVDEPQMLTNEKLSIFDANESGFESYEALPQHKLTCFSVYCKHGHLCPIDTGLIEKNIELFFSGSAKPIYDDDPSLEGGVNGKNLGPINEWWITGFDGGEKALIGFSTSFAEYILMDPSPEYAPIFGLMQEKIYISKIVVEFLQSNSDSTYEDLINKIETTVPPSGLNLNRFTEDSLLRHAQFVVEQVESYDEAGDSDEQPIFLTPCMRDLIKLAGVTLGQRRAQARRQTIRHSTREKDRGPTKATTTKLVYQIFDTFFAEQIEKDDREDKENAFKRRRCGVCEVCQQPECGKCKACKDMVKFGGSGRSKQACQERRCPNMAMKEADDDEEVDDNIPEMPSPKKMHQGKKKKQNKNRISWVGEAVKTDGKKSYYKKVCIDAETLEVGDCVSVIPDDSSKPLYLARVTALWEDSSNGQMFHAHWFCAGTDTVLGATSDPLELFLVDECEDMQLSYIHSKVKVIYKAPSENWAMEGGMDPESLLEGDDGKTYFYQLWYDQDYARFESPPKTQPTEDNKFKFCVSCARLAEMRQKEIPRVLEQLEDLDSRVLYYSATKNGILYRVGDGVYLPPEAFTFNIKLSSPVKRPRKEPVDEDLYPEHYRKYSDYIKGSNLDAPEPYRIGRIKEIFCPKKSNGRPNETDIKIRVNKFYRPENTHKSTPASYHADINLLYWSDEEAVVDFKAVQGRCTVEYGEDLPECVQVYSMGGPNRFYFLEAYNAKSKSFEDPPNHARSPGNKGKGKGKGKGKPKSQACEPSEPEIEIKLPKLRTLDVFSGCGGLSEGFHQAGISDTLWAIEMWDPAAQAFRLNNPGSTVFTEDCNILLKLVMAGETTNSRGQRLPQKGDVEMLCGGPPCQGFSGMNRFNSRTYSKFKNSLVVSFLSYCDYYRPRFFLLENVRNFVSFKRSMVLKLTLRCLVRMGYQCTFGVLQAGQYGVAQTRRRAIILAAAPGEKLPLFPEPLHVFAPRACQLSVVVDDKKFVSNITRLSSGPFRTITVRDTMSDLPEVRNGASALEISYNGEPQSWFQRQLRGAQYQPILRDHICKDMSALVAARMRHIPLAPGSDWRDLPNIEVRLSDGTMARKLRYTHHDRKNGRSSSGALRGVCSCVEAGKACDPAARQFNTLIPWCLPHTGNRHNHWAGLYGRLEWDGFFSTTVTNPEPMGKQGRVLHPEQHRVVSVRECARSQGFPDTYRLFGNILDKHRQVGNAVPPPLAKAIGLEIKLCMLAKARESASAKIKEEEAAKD

Structure (SMILES) | IC50 [1] | IC50 [2] | EC50 [3] | AC50 [4] | EC50 [5] | EC50 [6] | IC50 [7] | AC50 [8] | EC50 [9] | IC50 [10] | EC50 [11] | EC50 [12]
Cc1cc(C)c(Cn2c(C(=O)O)c(C=O)c3ccccc32)c(C)c1 | 16.9 µM (active) | 20.8 µM (inactive) | – | – | – | – | – | – | – | – | – | –
CCN(CC)CCNc1nc2cc(OC)c(OC)cc2c2nc(-c3ccccc3)nn12 | – | – | 4.9 µM (active) | 51.8 µM (active) | > 91.2 µM (inactive) | 0.678 µM (active) | > 100 µM (active) | 1.92 µM (active) | > 30 µM (not active) | > 99 µM (inactive) | > 91.2 µM (inactive) | 3.48 µM (active)
